Laboratory results taken from patent EP4745153A1, “GLP-1, GIP AND GCG RECEPTOR […] USE THEREOF” (Jiangsu Hengrui Pharmaceuticals Co., Ltd., priority 2023, dated 2025).
Starred links: 1 amine or outer side, 2 acyl side, 3 side chain; linkers in the order of their positions; H or OH if unused. Non-standard residues stand in square brackets, D forms with d. Residues, ends and D or L forms follow the SMILES beside them. Groups on a side chain read outwards from the residue. ξ: configuration not given here. *: point of attachment. C20 diacid = O=C(O)CCCCCCCCCCCCCCCCCCC(=O)*; γGlu = O=C(O)[C@H](CCC(=O)[*:2])N[*:1]; αMeL = CC(C)C[C@](C)(N)C(=O)O; αMeK = C[C@](N)(CCCCN)C(=O)O; ξIva = CCC(C)(N)C(=O)O; AEEA = NCCOCCOCC(=O)O; Aib = CC(C)(N)C(=O)O

How the values were obtained:
human GCGR = molecular target: T1, human GCGR (Homo sapiens, UniProt P47871); test: cAMP HTRF agonist activity assay in CHO-K1 cells expressing GCGR; assay type: cell-based
T1 construct: expressed in transfected cells; host or cells: CHO-K1 clonal cell line
Procedure: (§1) Functional activity was determined in CHO-K1 clonal cell lines expressing GIPR, GLP-1R, and GCGR. […] Each recipient cell (5000 cells/well) was added to an SV 96-well plate (Cisbio, 66PL96025) and incubated with the prepared polypeptide at 37°Cfor 30 min. The resulting increase in intracellular cAMP was quantitatively measured using the cAMP-GS dynamic HTRF assay kit (Cisbio, 62AM4PEJ). Briefly, the intracellular cAMP levels were determined by adding cAMP-d2 conjugate in cell lysis buffer, followed by the antibody anti-cAMP-Eu cryptate (also in cell lysis buffer).
(§2) Using the maximum response percentage vs. the added polypeptide concentration, the relative EC50 values were derived through nonlinear regression analysis and fitted to a four-parameter logarithmic equation. For specific data, refer to Tables 7-1 to 7-8 below. […]

human GLP-1R = molecular target: T2, human GLP-1R (Homo sapiens, UniProt P43220); test: cAMP HTRF agonist activity assay in CHO-K1 cells expressing GLP-1R; assay type: cell-based; conditions: read-out: Activity against human GLP-1R (EC50 nM); further: 5% FBS, 0.1% Casein
T2 construct: expressed in transfected cells; host or cells: CHO-K1 clonal cell line
Procedure: as §1, §2

human GIPR = molecular target: T3, human GIPR (Homo sapiens, UniProt P48546); test: cAMP HTRF agonist activity assay in CHO-K1 cells expressing GIPR; assay type: cell-based; conditions: read-out: Activity against human GIPR (EC50 nM); further: 5% FBS, 0.1% Casein
T3 construct: expressed in transfected cells; host or cells: CHO-K1 clonal cell line
T3 sequence (P48546 22-466): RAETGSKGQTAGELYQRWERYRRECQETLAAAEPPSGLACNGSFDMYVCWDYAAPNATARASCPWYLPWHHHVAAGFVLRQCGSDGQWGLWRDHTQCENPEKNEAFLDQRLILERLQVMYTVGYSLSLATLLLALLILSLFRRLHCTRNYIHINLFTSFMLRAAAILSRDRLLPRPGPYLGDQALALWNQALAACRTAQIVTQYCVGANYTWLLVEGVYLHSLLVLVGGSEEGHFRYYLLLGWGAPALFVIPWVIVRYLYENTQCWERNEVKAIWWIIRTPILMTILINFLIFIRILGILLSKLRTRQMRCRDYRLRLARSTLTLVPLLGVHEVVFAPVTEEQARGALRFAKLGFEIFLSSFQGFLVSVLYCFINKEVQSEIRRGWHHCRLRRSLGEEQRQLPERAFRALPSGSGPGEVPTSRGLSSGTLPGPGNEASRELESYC
Summary of the method: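 Clonal CHO-K1 lines, 5000 cells/well, exposed to polypeptides for 30 min at 37°C. Intracellular cAMP read by HTRF (cAMP-d2 conjugate plus anti-cAMP-Eu cryptate in lysis buffer). Relative EC50 from four-parameter nonlinear fit of percent maximum response against concentration.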

[1] = Pharmacokinetics in mice after single intravenous injection; set-up: species or system C57 mice; conditions: male, C57, mouse, in vivo, iv
Summary of the method: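 Male C57 mice (~25 g, 4-6 weeks, n=3) received a single i.v. dose of 200 nmol/kg in 1×PBS. Plasma collected from 5 min to 72 h was methanol-precipitated with verapamil internal standard and quantified by LC-MS (ESI positive, MRM); PK parameters were calculated by PKSolver.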

T2 sequence (P43220 24-463): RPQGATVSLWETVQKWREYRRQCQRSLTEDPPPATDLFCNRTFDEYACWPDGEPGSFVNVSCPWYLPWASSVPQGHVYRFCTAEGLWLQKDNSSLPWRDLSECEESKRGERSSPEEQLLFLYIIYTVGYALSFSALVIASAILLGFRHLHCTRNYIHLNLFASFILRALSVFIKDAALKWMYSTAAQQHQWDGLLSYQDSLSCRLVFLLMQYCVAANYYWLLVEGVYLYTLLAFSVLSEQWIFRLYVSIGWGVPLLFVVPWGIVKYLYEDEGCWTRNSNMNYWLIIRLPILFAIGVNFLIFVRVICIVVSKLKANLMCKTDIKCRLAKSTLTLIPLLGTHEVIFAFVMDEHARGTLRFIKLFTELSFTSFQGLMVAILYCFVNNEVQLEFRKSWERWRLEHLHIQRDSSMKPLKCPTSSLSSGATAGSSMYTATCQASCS
T1 sequence (P47871 26-477): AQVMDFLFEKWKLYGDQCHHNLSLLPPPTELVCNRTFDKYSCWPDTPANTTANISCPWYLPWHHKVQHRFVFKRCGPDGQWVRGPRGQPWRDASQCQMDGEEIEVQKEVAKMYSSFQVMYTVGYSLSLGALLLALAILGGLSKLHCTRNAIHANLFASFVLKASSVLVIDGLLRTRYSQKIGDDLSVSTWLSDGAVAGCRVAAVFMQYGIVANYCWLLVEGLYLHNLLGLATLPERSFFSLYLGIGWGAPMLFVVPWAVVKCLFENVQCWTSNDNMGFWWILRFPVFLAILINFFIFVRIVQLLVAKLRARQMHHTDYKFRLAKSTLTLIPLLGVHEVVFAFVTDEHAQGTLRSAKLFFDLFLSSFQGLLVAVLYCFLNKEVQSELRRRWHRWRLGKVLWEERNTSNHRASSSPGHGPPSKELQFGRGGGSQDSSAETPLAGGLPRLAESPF

Row | Structure (SMILES) | EC50 (human GCGR) [nM] | EC50 (human GLP-1R) [nM] | EC50 (human GIPR) [nM] | clearance [1] [mL/min/kg] | half-life [1] [h]
1 | CC[C@H](C)[C@H](NC(=O)[C@](C)(CCCCN)NC(=O)[C@H](CO)NC(=O)[C@H](Cc1ccc(O)cc1)NC(=O)[C@H](CC(=O)O)NC(=O)[C@H](CO)NC(=O)[C@@H](NC(=O)[C@H](Cc1ccccc1)NC(=O)[C@@H](NC(=O)CNC(=O)[C@H](Cc1c[nH]cn1)NC(=O)C(C)(C)NC(=O)[C@@H](N)Cc1c[nH]cn1)[C@@H](C)O)[C@@H](C)O)C(=O)N[C@@H](CC(C)C)C(=O)N[C@@H](CCC(=O)O)C(=O)N[C@@H](CCCCNC(=O)COCCOCCNC(=O)COCCOCCNC(=O)CC[C@H](NC(=O)CCCCCCCCCCCCCCCCCCC(=O)O)C(=O)O)C(=O)N[C@@H](CCC(N)=O)C(=O)N[C@@H](C)C(=O)N[C@@H](C)C(=O)NC(C)(CC)C(=O)N[C@@H](CCC(=O)O)C(=O)N[C@@H](Cc1ccccc1)C(=O)N[C@H](C(=O)N[C@@H](CCC(=O)O)C(=O)N[C@@H](Cc1c[nH]c2ccccc12)C(=O)N[C@@H](CC(C)C)C(=O)N[C@@H](CC(C)C)C(=O)N[C@@H](C)C(=O)NCC(=O)NCC(=O)N1CCC[C@H]1C(=O)N[C@@H](CO)C(=O)N[C@@H](CO)C(=O)NCC(=O)N[C@@H](C)C(=O)N1CCC[C@H]1C(=O)N1CCC[C@H]1C(=O)N1CCC[C@H]1C(=O)N[C@@H](CO)C(N)=O)C(C)C (stereo partly shown) [Compound 0130] (H-H[Aib]HGTFTSDYS[αMeK]ILEK([AEEA-AEEA-γGlu-C20 diacid])QAA[ξIva]EFVEWLLAGGPSSGAPPPS-NH2) | 0.03 |  |  |  | 
2 | CC[C@H](C)[C@H](NC(=O)[C@H](CO)NC(=O)[C@H](CC(C)C)NC(=O)[C@H](CC(=O)O)NC(=O)[C@H](CO)NC(=O)[C@@H](NC(=O)[C@H](Cc1ccccc1)NC(=O)[C@@H](NC(=O)CNC(=O)[C@H](Cc1c[nH]cn1)NC(=O)C(C)(C)NC(=O)[C@@H](N)Cc1c[nH]cn1)[C@@H](C)O)[C@@H](C)O)C(=O)N[C@@H](CC(C)C)C(=O)N[C@@H](CC(C)C)C(=O)N[C@@H](CCC(=O)O)C(=O)N[C@@H](CCCCNC(=O)COCCOCCNC(=O)COCCOCCNC(=O)CC[C@H](NC(=O)CCCCCCCCCCCCCCCCCCC(=O)O)C(=O)O)C(=O)N[C@@H](CCCCN)C(=O)N[C@@H](C)C(=O)N[C@@H](C)C(=O)NC1(C(=O)N[C@@H](CCC(=O)O)C(=O)N[C@@H](Cc2ccccc2)C(=O)N[C@H](C(=O)N[C@@H](CCC(=O)O)C(=O)N[C@@H](Cc2c[nH]c3ccccc23)C(=O)N[C@@H](CC(C)C)C(=O)N[C@@H](CC(C)C)C(=O)N[C@@H](C)C(=O)N[C@H](CCC(=O)O)C(=O)NCC(=O)N2CCC[C@H]2C(=O)N[C@@H](CO)C(=O)N[C@@H](CO)C(=O)NCC(=O)N[C@@H](C)C(=O)N2CCC[C@H]2C(=O)N2CCC[C@H]2C(=O)N2CCC[C@H]2C(=O)N[C@@H](CO)C(N)=O)C(C)C)CCC1 [Compound 0147] |  | 0.035 | 0.005 |  | 
3 | CCC(C)(NC(=O)[C@H](C)NC(=O)[C@H](C)NC(=O)[C@H](CCCCN)NC(=O)[C@H](CCCCNC(=O)COCCOCCNC(=O)COCCOCCNC(=O)CC[C@H](NC(=O)CCCCCCCCCCCCCCCCCCC(=O)O)C(=O)O)NC(=O)[C@H](CCC(=O)O)NC(=O)[C@H](CC(C)C)NC(=O)[C@H](CC(C)C)NC(=O)[C@](C)(CCCCN)NC(=O)[C@H](CO)NC(=O)[C@H](Cc1ccc(O)cc1)NC(=O)[C@H](CC(=O)O)NC(=O)[C@H](CO)NC(=O)[C@@H](NC(=O)[C@H](Cc1ccccc1)NC(=O)[C@@H](NC(=O)CNC(=O)[C@H](CCC(N)=O)NC(=O)C(C)(C)NC(=O)[C@@H](N)Cc1ccc(O)cc1)[C@@H](C)O)[C@@H](C)O)C(=O)N[C@@H](CCC(=O)O)C(=O)N[C@@H](Cc1ccccc1)C(=O)N[C@H](C(=O)N[C@@H](CCC(=O)O)C(=O)N[C@@H](Cc1c[nH]c2ccccc12)C(=O)N[C@@H](CC(C)C)C(=O)N[C@@H](CC(C)C)C(=O)N[C@@H](C)C(=O)NCC(=O)NCC(=O)N1CCC[C@H]1C(=O)N[C@@H](CO)C(=O)N[C@@H](CO)C(=O)NCC(=O)N[C@@H](C)C(=O)N1CCC[C@H]1C(=O)N1CCC[C@H]1C(=O)N1CCC[C@H]1C(=O)N[C@@H](CO)C(N)=O)C(C)C (stereo partly shown) [Compound 0127] (H-Y[Aib]QGTFTSDYS[αMeK]LLEK([AEEA-AEEA-γGlu-C20 diacid])KAA[ξIva]EFVEWLLAGGPSSGAPPPS-NH2) | 0.037 |  |  |  | 
4 | CC[C@H](C)[C@H](NC(=O)[C@H](CO)NC(=O)[C@H](Cc1ccc(O)cc1)NC(=O)[C@H](CC(=O)O)NC(=O)[C@H](CO)NC(=O)[C@@H](NC(=O)[C@H](Cc1ccccc1)NC(=O)[C@@H](NC(=O)CNC(=O)[C@H](Cc1c[nH]cn1)NC(=O)C(C)(C)NC(=O)[C@@H](N)Cc1c[nH]cn1)[C@@H](C)O)[C@@H](C)O)C(=O)N[C@@](C)(CC(C)C)C(=O)N[C@@H](CC(C)C)C(=O)N[C@@H](CCC(=O)O)C(=O)N[C@@H](CCCCNC(=O)COCCOCCNC(=O)COCCOCCNC(=O)CC[C@H](NC(=O)CCCCCCCCCCCCCCCCCCC(=O)O)C(=O)O)C(=O)N[C@@H](CCCCN)C(=O)N[C@@H](C)C(=O)N[C@@H](C)C(=O)NC(C)(CC)C(=O)N[C@@H](CCC(=O)O)C(=O)N[C@@H](Cc1ccccc1)C(=O)N[C@H](C(=O)N[C@@H](CCC(=O)O)C(=O)N[C@@H](Cc1c[nH]c2ccccc12)C(=O)N[C@@H](CC(C)C)C(=O)N[C@@H](CC(C)C)C(=O)N[C@@H](C)C(=O)NCC(=O)NCC(=O)N1CCC[C@H]1C(=O)N[C@@H](CO)C(=O)N[C@@H](CO)C(=O)NCC(=O)N[C@@H](C)C(=O)N1CCC[C@H]1C(=O)N1CCC[C@H]1C(=O)N1CCC[C@H]1C(=O)N[C@@H](CO)C(N)=O)C(C)C (stereo partly shown) [Compound 0137] (H-H[Aib]HGTFTSDYSI[αMeL]LEK([AEEA-AEEA-γGlu-C20 diacid])KAA[ξIva]EFVEWLLAGGPSSGAPPPS-NH2) |  | 0.013 | 0.001 | 0.163 | 8.8
5 | CC[C@H](C)[C@H](NC(=O)[C@H](CO)NC(=O)[C@H](CC(C)C)NC(=O)[C@H](CC(=O)O)NC(=O)[C@H](CO)NC(=O)[C@@H](NC(=O)[C@H](Cc1ccccc1)NC(=O)[C@@H](NC(=O)CNC(=O)[C@H](Cc1c[nH]cn1)NC(=O)C(C)(C)NC(=O)[C@@H](N)Cc1c[nH]cn1)[C@@H](C)O)[C@@H](C)O)C(=O)N[C@@H](CC(C)C)C(=O)N[C@@H](CC(C)C)C(=O)N[C@@H](CCC(=O)O)C(=O)N[C@@H](CCCCNC(=O)COCCOCCNC(=O)COCCOCCNC(=O)CC[C@H](NC(=O)CCCCCCCCCCCCCCCCCCC(=O)O)C(=O)O)C(=O)N[C@@H](CCCCN)C(=O)N[C@@H](C)C(=O)N[C@@H](C)C(=O)NC1(C(=O)N[C@@H](CCC(=O)O)C(=O)N[C@@H](Cc2ccccc2)C(=O)N[C@H](C(=O)N[C@@H](CCC(=O)O)C(=O)N[C@@H](Cc2c[nH]c3ccccc23)C(=O)N[C@@H](CC(C)C)C(=O)N[C@@H](CC(C)C)C(=O)N[C@@H](C)C(=O)N[C@H](CCC(=O)O)C(=O)NCC(=O)N2CCC[C@H]2C(=O)N[C@@H](CO)C(=O)N[C@@H](CO)C(=O)NCC(=O)N[C@@H](C)C(=O)N2CCC[C@H]2C(=O)N2CCC[C@H]2C(=O)N2CCC[C@H]2C(=O)N[C@@H](CO)C(N)=O)C(C)C)CC1 [Compound 0146] |  | 0.033 | 0.009 |  | 
